The text below walks through data of patent publication US20230407373A1 (priority 2020, published 2023).

Entries after “also recorded” stand apart in the source; their conditions may differ. Where two headings read alike, the source gives them in different places.

For test [1], the system named is SARS-CoV-2 gRNA and sgRNAs. Type of test: binding. To be noted: for target (unweighted spectral count in RNP capture): Probe II capture, LC-MS/MS LFQ; for background (unweighted spectral count in control): no-probe control pull-down, used as background for Probe II.
The test system of a further test is HCoV-OC43 gRNA and sgRNA. The format is binding. To be noted: for target (unweighted spectral count, OC43 Probe II capture) / target (unweighted spectral count): tested against no-probe control; for target (unweighted spectral count, OC43 Probe II capture): FDR<10%; for target (unweighted spectral count, OC43 Probe II) / background (unweighted spectral count, no-probe control): type n_48_v, 48 hpi; for target (unweighted spectral count, OC43 Probe II): OC43 Probe II capture on infected cells; for background (unweighted spectral count, no-probe control): no-probe control on infected cells; for target (spectral count) / background (spectral count): type s_36_m, Probe II; for target (spectral count): HCoV-OC43-infected HCT-8 cells; for background (spectral count): uninfected-probe control; for target (unweighted spectral count): OC43 Probe II, infected cells.

For the next test, the system named is gRNA of HCoV-OC43. Type of test: binding. To be noted: for target (spectral count) / background (spectral count): type g_36_m, 36 hpi, Probe I; for target (spectral count): HCoV-OC43-infected HCT-8 cells; for background (spectral count): uninfected-probe control; for target (spectral count, OC43 Probe I RNP capture) / background (spectral count, no-probe control): type n_48_v: 48 hours post-infection; for target (spectral count, OC43 Probe I RNP capture): infected cells, unweighted spectral count; for background (spectral count, no-probe control): no-probe control on infected cells.

The test system of a further test is SARS-CoV-2. Type of test: cell-based. The following applies: Calu-3 cells, 50 nM siRNA, RT-qPCR, relative to siNC. Background: Real-time PCR tracks product formation cycle by cycle.
The next test relates to SARS-CoV-2 gRNA. Type of test: binding. The following applies: for target (unweighted spectral count of the protein in the RNP capture): LC-MS/MS, Probe I sample (first 199 lines of Table 2).

For the substance TRIM25: host protein, UniProt Q14258, in test [1], the “target (unweighted spectral count in RNP capture)” value is given as 20 and the “background (unweighted spectral count in control)” value was 1. In addition, in the test with HCoV-OC43 gRNA and sgRNA (24 hpi, type n_24_v), the “target (unweighted spectral count, OC43 Probe II capture)” value was determined as 5. Further, in the test with HCoV-OC43 gRNA and sgRNA, the “target (unweighted spectral count, OC43 Probe II)” value stood at 13 and the “background (unweighted spectral count, no-probe control)” value was determined as 3. For the same substance, in the test on gRNA of HCoV-OC43, the “target (spectral count)” value was 14 and the “background (spectral count)” value was found to be 1. Moreover, in the test on SARS-CoV-2, the “change in viral RNA levels (gRNA, N sgRNA) after siRNA depletion” value is “increased viral RNAs”.
EIF4H: host protein, UniProt Q15056: in test [1], the “enrichment in SARS-CoV-2 Probe II RNP capture” value is listed as “enriched; also recorded: found in the SARS-CoV-2 experiments”, the “target (unweighted spectral count in RNP capture)” value was 31 and the “background (unweighted spectral count in control)” value came out at 1. In addition, in the test with HCoV-OC43 gRNA and sgRNA (24 hpi, type n_24_v), the “target (unweighted spectral count, OC43 Probe II capture)” value was determined as 5. For the same substance, the “target (unweighted spectral count, OC43 Probe II capture)” value in the test with HCoV-OC43 gRNA and sgRNA (36 hpi, type n_36_v) was 8. Moreover, in the test with HCoV-OC43 gRNA and sgRNA, the “target (unweighted spectral count, OC43 Probe II)” value came out at 9 and the “background (unweighted spectral count, no-probe control)” value was 1. In the test with HCoV-OC43 gRNA and sgRNA (36 hpi), the “target (spectral count)” value is reported as 8 and the “background (spectral count)” value is recorded as 1. In addition, in the test on gRNA of HCoV-OC43, the “target (spectral count)” value was 8; the “background (spectral count)” value was determined as 1; the “target (spectral count, OC43 Probe I RNP capture)” value is 9; the “background (spectral count, no-probe control)” value is reported as 1. The “enrichment in SARS-CoV-2 Probe I RNP capture” value with SARS-CoV-2 gRNA is on record as “enriched; also recorded: found in the SARS-CoV-2 experiments”. Also, the “target (unweighted spectral count of the protein in the RNP capture)” value with SARS-CoV-2 gRNA ([…]) was 25.
Regarding HNRNPAB, in test [1], the “target (unweighted spectral count in RNP capture)” value is listed as 44 and the “background (unweighted spectral count in control)” value is 1. Also, the “target (unweighted spectral count, OC43 Probe II capture)” value in the test with HCoV-OC43 gRNA and sgRNA (36 hpi, type n_36_v) was 21. Also, the “target (unweighted spectral count)” value in the test on HCoV-OC43 gRNA and sgRNA (12 hpi (type n_12_v)) is 10. For the same substance, in the test with HCoV-OC43 gRNA and sgRNA, the “target (unweighted spectral count, OC43 Probe II)” value was 27 and the “background (unweighted spectral count, no-probe control)” value amounted to 2. Moreover, in the test with gRNA of HCoV-OC43, the “target (spectral count, OC43 Probe I RNP capture)” value is 37 and the “background (spectral count, no-probe control)” value is 2. Further, the “target (unweighted spectral count of the protein in the RNP capture)” value in the test with SARS-CoV-2 gRNA ([…]) is given as 44.
Take TAF15: host protein, UniProt Q92804: in test [1], the “target (unweighted spectral count in RNP capture)” value came to 8 and the “background (unweighted spectral count in control)” value was 1. Moreover, the “target (unweighted spectral count)” value in the test on HCoV-OC43 gRNA and sgRNA (12 hpi (type n_12_v)) is listed as 5. In addition, in the test with HCoV-OC43 gRNA and sgRNA, the “target (unweighted spectral count, OC43 Probe II)” value worked out at 8 and the “background (unweighted spectral count, no-probe control)” value is 1. In addition, in the test with HCoV-OC43 gRNA and sgRNA (36 hpi), the “target (spectral count)” value is listed as 8 and the “background (spectral count)” value is recorded as 1. Moreover, in the test on gRNA of HCoV-OC43, the “target (spectral count, OC43 Probe I RNP capture)” value is recorded as 11 and the “background (spectral count, no-probe control)” value turned out to be 1. Also, the “target (unweighted spectral count in RNP capture)” value in the test with SARS-CoV-2 gRNA (Probe I capture, […], LC-MS/MS LFQ) was 5. Also, in the test on SARS-CoV-2 gRNA (no-probe control pull-down, used as background for Probe I), the “background (unweighted spectral count in control)” value was found to be 1.
For the substance DHX9: host protein, UniProt Q08211, in test [1], the “target (unweighted spectral count in RNP capture)” value is 11 and the “background (unweighted spectral count in control)” value amounted to 1. Besides, in the test with HCoV-OC43 gRNA and sgRNA (24 hpi (type n_24_v)), the “target (unweighted spectral count)” value is recorded as 13. Moreover, in the test with HCoV-OC43 gRNA and sgRNA, the “target (unweighted spectral count, OC43 Probe II)” value is 31 and the “background (unweighted spectral count, no-probe control)” value was determined as 4. In addition, in the test with HCoV-OC43 gRNA and sgRNA (36 hpi), the “target (spectral count)” value was 27 and the “background (spectral count)” value came out at 3. For the same substance, in the test with gRNA of HCoV-OC43, the “target (spectral count, OC43 Probe I RNP capture)” value was determined as 24 and the “background (spectral count, no-probe control)” value was determined as 4. The “target (unweighted spectral count of the protein in the RNP capture)” value in the test on SARS-CoV-2 gRNA ([…]) worked out at 15.
For the substance PTBP3: host protein, UniProt O95758, in test [1], the “enrichment in SARS-CoV-2 Probe II RNP capture” value is given as “found in the SARS-CoV-2 experiments” and the “background (unweighted spectral count in control)” value turned out to be 1. Besides, in the test on HCoV-OC43 gRNA and sgRNA (36 hpi, type n_36_v), the “target (unweighted spectral count, OC43 Probe II capture)” value is 8. The “target (unweighted spectral count)” value with HCoV-OC43 gRNA and sgRNA (24 hpi (type n_24_v)) was 7. For the same substance, in the test with HCoV-OC43 gRNA and sgRNA, the “target (unweighted spectral count, OC43 Probe II)” value is recorded as 12 and the “background (unweighted spectral count, no-probe control)” value was 2. Further, in the test with HCoV-OC43 gRNA and sgRNA (36 hpi), the “target (spectral count)” value turned out to be 8 and the “background (spectral count)” value was 1. Further, in the test with gRNA of HCoV-OC43, the “target (spectral count)” value was found to be 11; the “background (spectral count)” value turned out to be 1; the “target (spectral count, OC43 Probe I RNP capture)” value stood at 14; the “background (spectral count, no-probe control)” value was 2. Moreover, the “enrichment in SARS-CoV-2 Probe I RNP capture” value with SARS-CoV-2 gRNA was “found in the SARS-CoV-2 experiments”. Moreover, the “target (unweighted spectral count of the protein in the RNP capture)” value with SARS-CoV-2 gRNA ([…]) stood at 23.
On to TARDBP, for which, in test [1], the “target (unweighted spectral count in RNP capture)” value was 30 and the “background (unweighted spectral count in control)” value amounted to 1. Also, in the test with HCoV-OC43 gRNA and sgRNA (36 hpi, type n_36_v), the “target (unweighted spectral count, OC43 Probe II capture)” value came out at 19. Besides, in the test on HCoV-OC43 gRNA and sgRNA (12 hpi (type n_12_v)), the “target (unweighted spectral count)” value came out at 10. Also, the “target (unweighted spectral count)” value in the test with HCoV-OC43 gRNA and sgRNA (24 hpi (type n_24_v)) came to 20. Further, in the test with HCoV-OC43 gRNA and sgRNA, the “target (unweighted spectral count, OC43 Probe II)” value is recorded as 22 and the “background (unweighted spectral count, no-probe control)” value was found to be 3. Moreover, in the test with gRNA of HCoV-OC43, the “target (spectral count, OC43 Probe I RNP capture)” value was found to be 28 and the “background (spectral count, no-probe control)” value was 3. Further, the “target (unweighted spectral count of the protein in the RNP capture)” value with SARS-CoV-2 gRNA ([…]) worked out at 28.
Consider ELAVL1: host protein, UniProt Q15717, for which, in test [1], the “enrichment in SARS-CoV-2 Probe II RNP capture” value is “found in the SARS-CoV-2 experiments”, the “target (unweighted spectral count in RNP capture)” value turned out to be 74 and the “background (unweighted spectral count in control)” value was found to be 1. Moreover, the “target (unweighted spectral count, OC43 Probe II capture)” value with HCoV-OC43 gRNA and sgRNA (36 hpi, type n_36_v) came out at 40. The “target (unweighted spectral count)” value with HCoV-OC43 gRNA and sgRNA (12 hpi (type n_12_v)) is 9. Also, the “target (unweighted spectral count)” value in the test with HCoV-OC43 gRNA and sgRNA (24 hpi (type n_24_v)) is 17. Besides, in the test with HCoV-OC43 gRNA and sgRNA, the “target (unweighted spectral count, OC43 Probe II)” value is 36 and the “background (unweighted spectral count, no-probe control)” value is 2. In the test on HCoV-OC43 gRNA and sgRNA (36 hpi), the “target (spectral count)” value is 40 and the “background (spectral count)” value stood at 7. Further, in the test on gRNA of HCoV-OC43, the “target (spectral count)” value stood at 38; the “background (spectral count)” value was found to be 6; the “target (spectral count, OC43 Probe I RNP capture)” value was determined as 50; the “background (spectral count, no-probe control)” value is reported as 2. In the test on SARS-CoV-2 gRNA, the “enrichment in SARS-CoV-2 Probe I RNP capture” value is “found in the SARS-CoV-2 experiments”. For the same substance, in the test with SARS-CoV-2 gRNA ([…]), the “target (unweighted spectral count of the protein in the RNP capture)” value was 77.
